Experimental data from article PMC3904663 (Nature, 2013).

Target: Drosophila melanogaster dopamine transporter (dDATcryst) (Drosophila melanogaster, UniProt Q7K4Y6, V74A/DEL164-206/V275A/V311A/L415A/G538L)
Assay type: binding

CNCCC(Oc1ccccc1OC)c1ccccc1 (stereo not shown) [nisoxetine]
Kd: 29 nM
